Measured values reported in ChEMBL document CHEMBL4330081, “Rational design of 5-((1H-imidazol-1-yl)methyl)quinolin-8-ol derivatives as novel bromodomain-containing protein 4 inhibitors” (Eur J Med Chem, 2019).

Legend:
[1] = molecular target: T1, Bromodomain-containing protein 4 (Homo sapiens, UniProt O60885); test: Inhibition of BRD4 BD1 (unknown origin) using biotin labelled NeC: SGRG-K(Ac)-GG-K(Ac)-GLG-K(Ac)-GGA-K(Ac)-RHRKVGG-K as substrate preincubated for 15 mins followed by substrate addition measured after 30 mins by alpha screen assay
MV4-11 = test: Antiproliferative activity against human MV4-11 cells after 72 hrs by CellTiter Glo luminescent assay; assay type: functional, cell-based; settings: MV4-11, 72 h
[2] = molecular target: T1, Bromodomain-containing protein 4
Description: Stabilization of BRD4 BD1 (unknown origin) assessed as change in melting temperature at protein to test compound molar ratio of 1:40 by SYPRO Orange dye based fluorescence analysis

[3] = molecular target: T1, Bromodomain-containing protein 4; test: Inhibition of BRD4 BD1 (unknown origin) at 10 uM using biotin labelled NeC: SGRG-K(Ac)-GG-K(Ac)-GLG-K(Ac)-GGA-K(Ac)-RHRKVGG-K as substrate preincubated for 15 mins followed by substrate addition measured after 30 mins by alpha screen assay relative to control
[4] = molecular target: T1, Bromodomain-containing protein 4; test: Inhibition of BRD4 BD1 (unknown origin) at 50 uM using biotin labelled NeC: SGRG-K(Ac)-GG-K(Ac)-GLG-K(Ac)-GGA-K(Ac)-RHRKVGG-K as substrate preincubated for 15 mins followed by substrate addition measured after 30 mins by alpha screen assay relative to control
MM1.S = test: Antiproliferative activity against human MM1S cells after 72 hrs by CellTiter Glo luminescent assay; assay type: functional, cell-based
MDA-MB-231 = test: Antiproliferative activity against human MDA-MB-231 cells after 72 hrs by CellTiter Glo luminescent assay; assay type: functional, cell-based; settings: MDA-MB-231, 72 h
hERG (KCNH2) = hERG (KCNH2) (Homo sapiens, UniProt Q12809); test: in vitro; settings: CHO cells expressing human ERG
Chain of hERG (KCNH2) (Q12809 whole entry, the tested form may be a part): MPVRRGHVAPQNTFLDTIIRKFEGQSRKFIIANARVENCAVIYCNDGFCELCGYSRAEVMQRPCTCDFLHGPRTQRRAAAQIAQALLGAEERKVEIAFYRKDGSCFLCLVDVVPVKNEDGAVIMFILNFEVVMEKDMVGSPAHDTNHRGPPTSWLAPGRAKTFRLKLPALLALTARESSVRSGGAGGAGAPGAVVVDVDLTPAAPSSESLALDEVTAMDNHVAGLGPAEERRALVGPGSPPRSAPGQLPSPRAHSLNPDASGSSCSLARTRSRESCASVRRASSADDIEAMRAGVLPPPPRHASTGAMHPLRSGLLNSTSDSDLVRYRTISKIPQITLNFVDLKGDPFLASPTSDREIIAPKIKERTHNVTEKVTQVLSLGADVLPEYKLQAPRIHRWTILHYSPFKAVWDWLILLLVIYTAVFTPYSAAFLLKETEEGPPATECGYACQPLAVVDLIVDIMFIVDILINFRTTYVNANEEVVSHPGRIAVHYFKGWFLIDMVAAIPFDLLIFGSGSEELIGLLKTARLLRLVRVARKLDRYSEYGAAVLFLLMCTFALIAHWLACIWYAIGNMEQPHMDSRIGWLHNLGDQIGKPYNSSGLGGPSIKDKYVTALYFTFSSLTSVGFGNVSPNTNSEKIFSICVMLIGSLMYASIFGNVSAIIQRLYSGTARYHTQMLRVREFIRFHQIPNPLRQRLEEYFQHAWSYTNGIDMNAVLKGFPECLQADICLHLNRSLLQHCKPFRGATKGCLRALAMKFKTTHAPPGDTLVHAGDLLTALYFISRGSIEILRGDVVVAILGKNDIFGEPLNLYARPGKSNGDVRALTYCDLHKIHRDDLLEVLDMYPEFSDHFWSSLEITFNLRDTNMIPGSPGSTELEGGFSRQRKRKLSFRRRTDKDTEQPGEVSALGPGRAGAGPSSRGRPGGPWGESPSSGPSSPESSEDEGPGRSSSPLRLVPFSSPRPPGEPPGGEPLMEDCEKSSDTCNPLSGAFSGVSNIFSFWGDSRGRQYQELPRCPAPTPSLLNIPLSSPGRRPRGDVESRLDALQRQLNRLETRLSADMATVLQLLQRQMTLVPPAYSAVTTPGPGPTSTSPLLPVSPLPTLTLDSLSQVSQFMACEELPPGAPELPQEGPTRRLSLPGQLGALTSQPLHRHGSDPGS
Description: Inhibition of human ERG expressed in CHO cells at 40 uM at -80 mV holding potential after 2.5 mins by Qpatch clamp assay relative to control

[5] = molecular target: T1, Bromodomain-containing protein 4; test: Inhibition of recombinant full length human N-terminal His6-tagged BRD4 (2 to 1362 residues) expressed in baculovirus infected insect cells using histone H4 peptide as substrate by alpha screen assay
[6] = Half life in human hepatocytes at 1 uM up to 120 mins by LC/MS analysis; assay type: ADME, cell-based, Hepatocyte

Structure (SMILES): Oc1ccc(CN2CCn3c(nnc3C(F)(F)F)C2)c2cccnc12
- IC50 [1]: 68 nM
- IC50 (MV4-11): 22400 nM
- ΔTm [2]: 4.9 °C

Structure (SMILES): O=[N+]([O-])c1cc([N+](=O)[O-])c2cccnc2c1O
- inhibition [3]: 27%

Structure (SMILES): COC(=O)C(O)(c1cc(C)c2cccnc2c1O)C(F)(F)F (centres undefined)
- inhibition [4]: 97%

Structure (SMILES): Oc1ccc(CNc2ccc(Cl)cn2)c2cccnc12
- inhibition [3]: 12%

Structure (SMILES): Nc1ccc2c(Cn3ccnc3)ccc(O)c2n1
- IC50 [1]: 292 nM
- IC50 (MV4-11): 20400 nM
- ΔTm [2]: 3.8 °C

Structure (SMILES): CC(C)(CCl)C(=O)Oc1ccc(Cn2ccnc2)c2cccnc12
- IC50 (MM1.S): 3600 nM
- IC50 [1]: 54 nM
- IC50 (MDA-MB-231): 12400 nM
- IC50 (MV4-11): 8900 nM
- ΔTm [2]: 2.4 °C

Structure (SMILES): O=[N+]([O-])c1cccc(S(=O)(=O)Nc2ccc(O)c3ncccc23)c1
- inhibition [3]: -0%

Structure (SMILES): Oc1ccc(CSc2ccccc2)c2cccnc12
- IC50 [1]: 3000 nM
- inhibition [3]: 86%

Structure (SMILES): Oc1ccc(CSc2nc3ccccc3s2)c2cccnc12
- inhibition [3]: 18%

Structure (SMILES): Oc1ccc(CNc2cccc(C(F)(F)F)c2)c2cccnc12
- IC50 [1]: 4800 nM
- inhibition [3]: 84%

Structure (SMILES): Oc1ccc(Cn2cccn2)c2cccnc12
- IC50 (MM1.S): 700 nM
- inhibition at 2.5 min, 40 µM (hERG (KCNH2)): 8.3%
- IC50 [1]: 76 nM
- IC50 (MDA-MB-231): 3600 nM
- IC50 (MV4-11): 1600 nM
- ΔTm [2]: 4.5 °C

Structure (SMILES): Oc1cccc2ccc(N3CCCCC3)nc12
- inhibition [3]: -0%

Structure (SMILES): Cc1cc(O)c2cccc(O)c2n1
- inhibition [4]: -0%

Structure (SMILES): CCCOCc1ccc(O)c2ncccc12
- IC50 [1]: 2100 nM
- inhibition [3]: 96%

Structure (SMILES): CC1=NN(c2ccc3cccc(O)c3n2)C(=O)C1
- IC50 [1]: 1000 nM
- inhibition [3]: 99%

Structure (SMILES): Cc1cc(C)c2ccc(/C=N/O)nc2c1O
- inhibition [3]: 6%

Structure (SMILES): Oc1ccc(Cn2cncn2)c2cccnc12
- IC50 (MM1.S): 4300 nM
- IC50 [1]: 95 nM
- IC50 (MDA-MB-231): 6700 nM
- IC50 (MV4-11): 5200 nM
- ΔTm [2]: 3.2 °C

Structure (SMILES): Oc1cccc2ccc(/C=C/c3ccc(-c4cccc(Br)c4)o3)nc12
- inhibition [4]: < 7.8%

Structure (SMILES): Cc1cc(C)n(-c2ccc3c(Cl)cc(Cl)c(O)c3n2)n1
- inhibition [3]: -0%

Structure (SMILES): Oc1ccc(COn2nnc3ccccc32)c2cccnc12
- IC50 [1]: 82 nM
- IC50 (MV4-11): 12700 nM
- ΔTm [2]: 4.4 °C

Structure (SMILES): Cc1cc(C)c2ccc(C=O)nc2c1O
- inhibition [3]: -0%

Structure (SMILES): CN(C)c1ccc2cccc(O)c2n1
- inhibition [3]: -0%

Structure (SMILES): Oc1ccc(CNc2ccccc2Br)c2cccnc12
- inhibition [4]: 46%

Structure (SMILES): O=S(=O)(O)c1ccc2cccc(O)c2n1
- inhibition [4]: 47.4%

Structure (SMILES): COc1nnc2ccc(N3CCC(c4ccc(OCCN5CCN(C)C(=O)C5C)cc4)CC3)nn12 (centres undefined)
- IC50 [5]: 1.7 nM

Structure (SMILES): O=C(C[n+]1cccc2cccc(O)c21)c1ccccc1
- inhibition [4]: -0%

Structure (SMILES): O=[N+]([O-])c1ccc(O)c2ncccc12 [NITROXOLINE]
- IC50 (MV4-11): 4900 nM
- ΔTm [2]: 3.9 °C

Structure (SMILES): C=CC[n+]1cccc2cccc(O)c21
- inhibition [4]: -0%

Structure (SMILES): Nc1cc(S(=O)(=O)O)c2cccnc2c1O
- inhibition [3]: -0%

Structure (SMILES): CC(=O)Oc1ccc(Cn2ccnc2)c2cccnc12
- IC50 [1]: 61 nM
- IC50 (MV4-11): 28500 nM
- ΔTm [2]: 4.3 °C

Structure (SMILES): Cc1sc2c(c1C)C(c1ccccc1)=N[C@@H](CC(=O)OC(C)(C)C)c1nnc(C)n1-2
- IC50 [5]: 33 nM

Structure (SMILES): Cn1c(/N=N/c2ccc(O)c3ncccc23)nc2ccccc21
- IC50 [1]: 370 nM
- inhibition [3]: 100%

Structure (SMILES): Oc1ccc(Cn2nnc3ccccc32)c2cccnc12
- IC50 (MM1.S): 300 nM
- inhibition at 2.5 min, 40 µM (hERG (KCNH2)): 24%
- IC50 [1]: 155 nM
- IC50 (MDA-MB-231): 1300 nM
- IC50 (MV4-11): 1000 nM
- ΔTm [2]: 4.3 °C

Structure (SMILES): CC(C)(C)OC(=O)Oc1ccc(Cn2ccnc2)c2cccnc12
- IC50 (MM1.S): 1800 nM
- IC50 [1]: 176 nM
- IC50 (MDA-MB-231): 31500 nM
- IC50 (MV4-11): 11500 nM
- ΔTm [2]: 4.5 °C

Structure (SMILES): O=C(N/N=C/c1ccc(O)c2ncccc12)c1cccc(Br)c1
- IC50 [1]: 5200 nM
- inhibition [3]: 73%

Structure (SMILES): O=C1CN(Cc2ccc(O)c3ncccc23)Cc2ncccc2N1
- IC50 [1]: 92 nM
- IC50 (MV4-11): 9600 nM
- ΔTm [2]: 4.3 °C

Structure (SMILES): Cc1ccc2c(Cn3cnc(F)c3)ccc(OC(=O)OC(C)(C)C)c2n1
- IC50 (MM1.S): 1100 nM
- half-life at 1 µM [6]: 1.6 min
- IC50 [1]: 46 nM
- IC50 (MDA-MB-231): 2700 nM
- IC50 (MV4-11): 2900 nM
- ΔTm [2]: 4.6 °C

Structure (SMILES): O=C(C[n+]1cccc2cccc(O)c21)c1ccc(F)cc1
- inhibition [4]: -0%

Structure (SMILES): COc1ccc(C)cc1/N=N/c1ccc(O)c2nc(C=O)ccc12
- inhibition [3]: 20%

Structure (SMILES): O=S(=O)(O)c1ccc(/N=N/c2ccc(O)c3ncccc23)cc1
- inhibition [3]: -0%

Structure (SMILES): Cc1cc(C)c2ccc(NN)nc2c1O
- IC50 [1]: 18000 nM
- inhibition [4]: 88%

Structure (SMILES): CCOC(=O)C1CCCN(Cc2ccc(O)c3ncccc23)C1 (centres undefined)
- IC50 [1]: 738 nM
- inhibition [4]: 97.8%

Structure (SMILES): Cc1ccc2c(Cn3ccnc3)ccc(O)c2n1
- inhibition [3]: 41%

Structure (SMILES): O=C1c2ccccc2C(=O)N1CCCOc1ccc(Cn2ccnc2)c2cccnc12
- inhibition [3]: 21%

Structure (SMILES): Nc1ccc(-c2nc3ccc(-c4nc5ccc(N)cc5[nH]4)cc3[nH]2)cc1
- inhibition [3]: -0%

Structure (SMILES): Oc1ccc(CNc2ccc(C(F)(F)F)cc2)c2cccnc12
- IC50 [1]: 4800 nM

Structure (SMILES): O=C(Oc1ccc(Cn2ccnc2)c2cccnc12)c1ccccc1
- IC50 (MM1.S): 2900 nM
- half-life at 1 µM [6]: 1.4 min
- IC50 [1]: 67 nM
- IC50 (MDA-MB-231): 12300 nM
- IC50 (MV4-11): 9000 nM
- ΔTm [2]: 3.8 °C

Structure (SMILES): O=C(Cc1ccccc1)N/N=C/c1ccc(O)c2ncccc12
- IC50 [1]: 4700 nM
- inhibition [3]: 82%

Structure (SMILES): O=C(C[n+]1cccc2cccc(O)c21)c1ccc(Cl)cc1
- inhibition [4]: -0%

Structure (SMILES): O=c1oc2ccc(Cl)cc2n1Cc1ccc(O)c2ncccc12
- inhibition [3]: 16%

Structure (SMILES): O=C1c2ccccc2C(=O)N1Cc1ccc(O)c2ncccc12
- inhibition [3]: 30%

Structure (SMILES): Oc1cccc2ccc(/C=C/c3cccc(OCc4ccccc4Cl)c3)nc12
- inhibition [4]: -0%

Structure (SMILES): Oc1c(Br)cc(/C=C/c2ccc3cccc(O)c3n2)cc1Br
- inhibition [4]: -0%

Structure (SMILES): CCOc1c(Br)cc(Br)cc1/C=C/c1ccc2cccc(O)c2n1
- inhibition [4]: -0%

Structure (SMILES): Oc1c(Br)cc(Br)cc1/C=C/c1ccc2cccc(O)c2n1
- inhibition [4]: -0%

Structure (SMILES): O=C(CCc1ccccc1)N/N=C/c1ccc(O)c2ncccc12
- IC50 [1]: 4300 nM
- inhibition [3]: 86%

Structure (SMILES): Cc1ccc(C(=O)C[n+]2cccc3cccc(O)c32)cc1
- inhibition [4]: -0%

Structure (SMILES): Cc1cc2ncn(Cc3ccc(O)c4ncccc34)c2cc1C
- inhibition [3]: 23%

Structure (SMILES): O=[N+]([O-])c1cccc(-c2ccc(/C=C/c3ccc4cccc(O)c4n3)o2)c1
- inhibition [4]: -0%

Structure (SMILES): O=S(=O)(Nc1ccc(O)c2ncccc12)c1ccc(Cl)cc1
- inhibition [3]: -0%

Structure (SMILES): CC(=O)Oc1ccc(Cn2cnc(F)c2)c2cccnc12
- IC50 (MM1.S): 1100 nM
- IC50 [1]: 70 nM
- IC50 (MDA-MB-231): 2200 nM
- IC50 (MV4-11): 2900 nM
- ΔTm [2]: 4.7 °C

Structure (SMILES): Cc1nnn(C)c1-c1cnc2c3ccc(C(C)(C)O)cc3n(C(c3ccccc3)C3CCOCC3)c2c1 (centres undefined)
- IC50 [5]: < 5 nM

Structure (SMILES): Oc1ccc(Cn2c(-c3cscn3)nc3ccccc32)c2cccnc12
- IC50 (MM1.S): 2100 nM
- IC50 [1]: 73 nM
- IC50 (MDA-MB-231): 3700 nM
- IC50 (MV4-11): 1500 nM
- ΔTm [2]: 4.7 °C

Structure (SMILES): Oc1ccc(CN2CCCCCC2)c2cccnc12
- IC50 [1]: 670 nM
- inhibition [4]: 46 to 99%

Structure (SMILES): CC(C)(C)OC(=O)Oc1ccc(Cn2c(-c3cscn3)nc3ccccc32)c2cccnc12
- inhibition [3]: 11%

Structure (SMILES): N=C(N)NCCC[C@H](NC(=O)CCC(=O)OC[N+]1(c2cc(=O)c3cccc(-c4ccccc4)c3o2)CCOCC1)C(=O)NCC(=O)N[C@@H](CC(=O)O)C(=O)N[C@@H](CO)C(=O)[O-] [SF-1126]
- IC50 [5]: 5300 nM

Structure (SMILES): COc1ccc(C)cc1/N=N/c1ccc(O)c2nc(/C=N/O)ccc12
- inhibition [3]: 24%
